PMC5341033, “Transcriptomic insight into terpenoid and carbazole alkaloid biosynthesis, and functional characterization of two terpene synthases in curry tree (Murraya koenigii)” (Scientific Reports, 2017)

What was measured:
MkTPS1 = target: T1, MkTPS1 (Murraya koenigii, UniProt A0A1U9M7Y9); assay: terpene synthase assay, SPME GC-MS of products; format: biochemical; conditions: 70 μM GPP; 1 mM MgCl2, 5 mM DTT, 30 mM HEPES pH 7.5, 30 °C 2 h; product (−)-sabinene
T1 construct: plastid transit peptide truncated at Met-40; full length 602 aa; E. coli Rosetta-2; Ni-NTA purified

MkTPS2 = target: T2, MkTPS2 (Murraya koenigii, UniProt A0A1U9M7X9); assay: terpene synthase assay, SPME GC-MS of products; format: biochemical; conditions: 70 μM FPP; 1 mM MgCl2, 5 mM DTT, 30 mM HEPES pH 7.5, 30 °C 2 h; product (E,E)-α-farnesene
T2 construct: full-length ORF, 560 aa; E. coli Rosetta-2; Ni-NTA purified
T2 sequence (A0A1U9M7X9 entry or part of it): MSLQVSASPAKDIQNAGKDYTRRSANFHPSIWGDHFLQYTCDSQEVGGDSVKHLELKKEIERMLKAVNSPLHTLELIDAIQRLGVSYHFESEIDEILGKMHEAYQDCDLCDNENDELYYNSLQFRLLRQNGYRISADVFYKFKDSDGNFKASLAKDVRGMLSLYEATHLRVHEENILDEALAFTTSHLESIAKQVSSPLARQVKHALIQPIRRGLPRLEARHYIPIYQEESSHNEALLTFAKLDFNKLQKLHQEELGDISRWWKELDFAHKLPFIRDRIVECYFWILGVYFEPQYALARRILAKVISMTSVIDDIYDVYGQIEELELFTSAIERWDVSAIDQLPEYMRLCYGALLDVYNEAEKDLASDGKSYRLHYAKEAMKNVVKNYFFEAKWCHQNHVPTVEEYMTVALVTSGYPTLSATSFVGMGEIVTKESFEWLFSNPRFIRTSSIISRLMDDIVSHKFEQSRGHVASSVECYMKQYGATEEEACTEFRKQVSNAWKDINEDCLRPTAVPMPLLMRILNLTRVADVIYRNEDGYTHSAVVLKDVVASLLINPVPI

T1 sequence (A0A1U9M7Y9 entry or part of it): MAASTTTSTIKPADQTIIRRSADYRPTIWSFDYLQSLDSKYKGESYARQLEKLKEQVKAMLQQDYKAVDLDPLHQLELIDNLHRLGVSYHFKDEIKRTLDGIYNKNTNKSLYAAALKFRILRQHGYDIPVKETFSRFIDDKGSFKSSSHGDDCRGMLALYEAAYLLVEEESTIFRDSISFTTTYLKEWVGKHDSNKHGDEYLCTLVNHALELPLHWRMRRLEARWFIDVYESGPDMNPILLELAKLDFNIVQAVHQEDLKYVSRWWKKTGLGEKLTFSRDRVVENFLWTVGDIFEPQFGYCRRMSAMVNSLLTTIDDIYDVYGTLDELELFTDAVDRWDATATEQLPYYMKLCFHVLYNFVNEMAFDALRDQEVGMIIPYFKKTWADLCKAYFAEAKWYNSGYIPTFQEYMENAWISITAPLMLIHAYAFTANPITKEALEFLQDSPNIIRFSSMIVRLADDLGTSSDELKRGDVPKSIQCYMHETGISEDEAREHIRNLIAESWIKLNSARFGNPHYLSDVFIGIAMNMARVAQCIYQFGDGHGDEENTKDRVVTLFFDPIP

Row | SMILES | terpene synthase assay, SPME GC-MS of products (MkTPS1) | terpene synthase assay, SPME GC-MS of products (MkTPS2)
1 | CC(C)=CCC/C(C)=C/COP(=O)(O)OP(=O)(O)O [geranyl diphosphate] | MkTPS1 showed the formation of predominantly sabinene utilizing GPP as substrate | 
2 | CC(C)=CCC/C(C)=C/CC/C(C)=C/COP(=O)(O)OP(=O)(O)O [farnesyl diphosphate] |  | MkTPS2, the product analysis showed the formation of α-farnesene with FPP as substrate
